Experimental data taken from paper PMC9878307, “Derivatives of 2-aminobenzimidazole potentiate ASIC open state with slow kinetics of activation and desensitization” (Frontiers in Physiology, 2023).

Legend:
Assay type in all cases: cell-based
ASIC1a = molecular target: T1, ASIC1a (Rattus norvegicus, UniProt P55926); test: whole-cell patch clamp, slowed desensitization ([…] at […], […] at […]), amplitude unchanged
T1 construct: gene Asic1; rASIC1a homomer expressed in CHO cells
T1 sequence (P55926 1-526): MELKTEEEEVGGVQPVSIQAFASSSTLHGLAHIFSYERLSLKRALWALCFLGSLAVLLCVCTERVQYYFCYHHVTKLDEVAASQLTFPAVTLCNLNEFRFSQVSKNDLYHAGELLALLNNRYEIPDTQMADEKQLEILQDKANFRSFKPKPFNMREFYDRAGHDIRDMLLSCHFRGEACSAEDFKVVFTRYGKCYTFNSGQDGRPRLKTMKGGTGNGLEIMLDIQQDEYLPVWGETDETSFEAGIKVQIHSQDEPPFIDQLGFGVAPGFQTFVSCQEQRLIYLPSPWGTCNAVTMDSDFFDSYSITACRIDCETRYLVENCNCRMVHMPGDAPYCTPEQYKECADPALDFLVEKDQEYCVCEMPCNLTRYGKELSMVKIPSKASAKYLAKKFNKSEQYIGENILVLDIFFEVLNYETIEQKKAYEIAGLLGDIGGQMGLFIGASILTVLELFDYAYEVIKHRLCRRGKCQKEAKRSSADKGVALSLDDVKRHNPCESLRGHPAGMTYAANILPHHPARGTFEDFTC

ASIC2a [1] = molecular target: T2, ASIC2a (Rattus norvegicus, UniProt Q62962); test: whole-cell patch clamp, potentiation of acid-evoked peak current at pH […]
T2 construct: gene Asic2; rASIC2a homomer expressed in CHO cells
T2 sequence (Q62962 1-512): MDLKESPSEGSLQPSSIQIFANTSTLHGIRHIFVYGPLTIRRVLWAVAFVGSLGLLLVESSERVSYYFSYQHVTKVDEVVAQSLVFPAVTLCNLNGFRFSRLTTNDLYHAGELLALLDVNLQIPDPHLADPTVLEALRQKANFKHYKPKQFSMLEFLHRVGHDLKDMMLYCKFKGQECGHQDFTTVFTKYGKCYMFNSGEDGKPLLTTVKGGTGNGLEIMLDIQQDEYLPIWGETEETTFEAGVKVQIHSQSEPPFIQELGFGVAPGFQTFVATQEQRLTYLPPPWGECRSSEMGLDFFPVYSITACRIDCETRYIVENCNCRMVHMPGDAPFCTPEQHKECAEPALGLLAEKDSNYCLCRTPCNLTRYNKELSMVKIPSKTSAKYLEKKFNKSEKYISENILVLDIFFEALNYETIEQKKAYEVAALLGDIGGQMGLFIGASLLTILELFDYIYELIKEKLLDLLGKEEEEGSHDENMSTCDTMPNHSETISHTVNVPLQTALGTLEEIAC

ASIC2a [2] = molecular target: T2, ASIC2a; test: whole-cell patch clamp, […] inhibition of peak current at […], pH […]; details: pH 5
ASIC3 = molecular target: T3, ASIC3 (Rattus norvegicus, UniProt O35240); test: whole-cell patch clamp, […] inhibition of peak current at […]
T3 construct: rASIC3 expressed in CHO cells
T3 sequence (O35240 1-533): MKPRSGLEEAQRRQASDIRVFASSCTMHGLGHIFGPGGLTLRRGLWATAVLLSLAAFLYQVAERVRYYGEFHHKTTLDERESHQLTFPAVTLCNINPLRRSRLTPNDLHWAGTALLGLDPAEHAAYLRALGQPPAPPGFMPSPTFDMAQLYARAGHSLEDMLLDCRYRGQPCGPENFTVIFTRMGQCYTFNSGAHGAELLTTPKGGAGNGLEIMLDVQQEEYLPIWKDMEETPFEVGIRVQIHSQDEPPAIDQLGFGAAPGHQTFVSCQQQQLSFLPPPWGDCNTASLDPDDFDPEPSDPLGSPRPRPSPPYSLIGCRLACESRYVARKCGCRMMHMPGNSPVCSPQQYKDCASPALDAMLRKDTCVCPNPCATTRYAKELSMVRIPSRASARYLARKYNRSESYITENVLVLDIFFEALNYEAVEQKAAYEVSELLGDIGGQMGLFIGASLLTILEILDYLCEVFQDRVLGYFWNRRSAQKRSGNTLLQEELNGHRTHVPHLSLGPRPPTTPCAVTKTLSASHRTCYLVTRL

Row | EC50 (ASIC2a [1]) [µM] | inhibition at 70 µM (ASIC2a [2]) [%] | inhibition at 70 µM (ASIC3) [%] | Compound | fold slowing of desensitization (ASIC1a)
1 | 7.52 ± 0.33 | – | – | Nc1n(CC(=O)c2ccc(F)cc2)c2ccccc2[n+]1CCN1CCOCC1 [Ru-1355] | 1.28 ± 0.15
2 | – | 75 ± 12 | 74 ± 8 | N=C(N)c1ccc(/N=N/Nc2ccc(C(=N)N)cc2)cc1 [diminazene] | –
